Experimental data: PMC5560435 (Journal of fluorine chemistry, 2017)
Where two headings read alike, the source gives them in different places.

Key:
[1] = tested on: CSC-enriched (CD133++) HCT-116 human colon cancer cell line; settings: cited from earlier work
[2] = tested on: NCI/ADR multidrug-resistant human ovarian carcinoma; settings: cited from earlier work; for R/S resistance factor: (IC50 NCI/ADR)/(IC50 MCF7-S); for IC50: read-out: IC50 NCI/ADR (ovarian), 72 h drug exposure
[3] = tested on: MCF7-S human breast carcinoma; settings: read-out: IC50 MCF7-S (breast); 72 h drug exposure; cited from earlier work
[4] = tested on: CSC-enriched (CD133++) HCT-116 human colon cancer cell line; assay: Cytotoxicity against CSC-enriched HCT-116; assay type: cell-based; settings: CSC-enriched HCT-116, from Table 2
tubulin [5] = assay: Critical concentration of tubulin for microtubule assembly; assay type: biochemical; settings: from Table 3
microtubules [6] = assay: Binding to microtubules, fluorescent ligand displacement method; settings: from Table 4
microtubules [7] = settings: cited from earlier work
tubulin [8] = settings: cited from earlier work
[9] = tested on: PANC-1 human pancreatic cancer cell line; settings: read-out: IC50 PANC-1 (pancreatic); 72 h drug exposure; cited from earlier work
[10] = tested on: HT-29 human colon cancer cell line; settings: read-out: IC50 HT-29 (colon); 72 h drug exposure; cited from earlier work
[11] = tested on: microtubule protein (tubulin); settings: microtubule protein 1 mg/mL, 37 °C, Drug 10 μM; cited from earlier work
CYP 3A4 = CYP 3A4 in humans; cited from earlier work

Compound | IC50 [1] [nM] | R/S resistance factor [2] | IC50 [2] [nM] | IC50 [3] [nM] | also measured
N.N.[Cl][Pt][Cl] [cisplatin] | 4540 |  |  |  | 
CC[C@@]1(O)C(=O)OCc2c1cc1n(c2=O)Cc2cc3c(CN(C)C)c(O)ccc3nc2-1 [topotecan] | 451 ± 12 |  |  |  | 
COC(=O)O[C@H]1C(=O)[C@@]2(C)C([C@H](OC(=O)c3cccc(N=[N+]=[N-])c3)[C@]3(O)C[C@H](OC(=O)[C@H](O)[C@H](C=C(F)F)NC(=O)OC(C)(C)C)C(C)=C1C3(C)C)[C@]1(OC(C)=O)CO[C@@H]1C[C@@H]2O (some centres unmarked) [SB-T-12855-3] |  | 5.3 | 0.4 | 0.078 | 
CC(=O)O[C@@]12CO[C@@H]1C[C@H](O)[C@@]1(C)C(=O)[C@H](OC(=O)C3CC3)C3=C(C)[C@@H](OC(=O)[C@H](O)[C@H](C=C(F)F)NC(=O)OC(C)(C)C)C[C@@](O)([C@@H](OC(=O)c4cccc(F)c4)[C@H]21)C3(C)C [SB-T-12852-2] |  | 24 | 1.72 | 0.071 | 
COc1cccc2c1C(=O)c1c(O)c3c(c(O)c1C2=O)C[C@@](O)(C(=O)CO)C[C@@H]3O[C@H]1C[C@H](N)[C@H](O)[C@H](C)O1 [doxorubicin] | 78 ± 28.2 |  |  |  | 
COC(=O)O[C@H]1C(=O)[C@@]2(C)C([C@H](OC(=O)c3cccc(Cl)c3)[C@]3(O)C[C@H](OC(=O)[C@H](O)[C@H](C=C(F)F)NC(=O)OC(C)(C)C)C(C)=C1C3(C)C)[C@]1(OC(C)=O)CO[C@@H]1C[C@@H]2O (some centres unmarked) [SB-T-12855-4] |  | 12 | 1.16 | 0.099 | 
CC(=O)O[C@@]12CO[C@@H]1C[C@H](O)[C@@]1(C)C(=O)[C@H](OC(=O)N(C)C)C3=C(C)[C@@H](OC(=O)[C@H](O)[C@H](C=C(F)F)NC(=O)OC(C)(C)C)C[C@@](O)([C@@H](OC(=O)c4ccccc4)C12)C3(C)C (some centres unmarked) [SB-T-12854] | 0.14 ± 0.05 | 33 | 4.3 | 0.13 | times higher potency than conventional anticancer drugs [4]: 230-33,000 times; Potency in inducing tubulin assembly relative to SB-T-1214 (tubulin [5]): three times higher potency than SB-T-1214; times stronger binding to microtubules than paclitaxel (microtubules [6]): ca. 10 times; Binding constant with microtubules (microtubules [7]; 26 °C): 15±3 x10^7 M^−1; Binding constant with microtubules (microtubules [7]; 37 °C): 10±1 x10^7 M^−1; Critical concentration of tubulin required for microtubule assembly (tubulin [8]): 0.3 ± 0.1 µM; IC50 [9]: 1.58 nM; IC50 [10]: 0.46 nM; Rate of GTP-independent tubulin polymerization [11]: much faster than paclitaxel
COc1cccc(C(=O)O[C@H]2[C@@H]3[C@]4(OC(C)=O)CO[C@@H]4C[C@H](O)[C@@]3(C)C(=O)[C@H](OC(=O)C3CC3)C3=C(C)[C@@H](OC(=O)[C@H](O)[C@H](C=C(F)F)NC(=O)OC(C)(C)C)C[C@]2(O)C3(C)C)c1 [SB-T-12852-1] |  | 5.2 | 0.48 | 0.092 | 
CC(=O)O[C@@]12CO[C@@H]1C[C@H](O)[C@@]1(C)C(=O)[C@H](OC(=O)C3CC3)C3=C(C)[C@@H](OC(=O)[C@H](O)[C@H](C=C(F)F)NC(=O)OC(C)(C)C)C[C@@](O)([C@@H](OC(=O)c4ccccc4)[C@H]21)C3(C)C [SB-T-12852] |  | 50 | 6 | 0.12 | IC50 [9]: 5.85 nM; IC50 [10]: 0.85 nM
CN(Cc1cnc2nc(N)nc(N)c2n1)c1ccc(C(=O)N[C@@H](CCC(=O)O)C(=O)O)cc1 [methotrexate] | 32.7 ± 11.2 |  |  |  | 
CC(=O)O[C@H]1C(=O)[C@@]2(C)[C@H]([C@H](OC(=O)c3ccccc3)[C@]3(O)C[C@H](OC(=O)[C@H](O)[C@@H](NC(=O)c4ccccc4)c4ccccc4)C(C)=C1C3(C)C)[C@]1(OC(C)=O)CO[C@@H]1C[C@@H]2O [paclitaxel, reference compound] | 33.8 ± 3.33 | 250 | 300 | 1.2 | IC50 [9]: 25.7 nM; IC50 [10]: 3.6 nM
CC(=O)O[C@H]1C(=O)[C@@]2(C)C([C@H](OC(=O)c3ccccc3)[C@]3(O)C[C@H](OC(=O)[C@H](O)[C@H](C=C(F)F)NC(=O)OC(C)(C)C)C(C)=C1C3(C)C)[C@]1(OC(C)=O)CO[C@@H]1C[C@@H]2O (some centres unmarked) [SB-T-12851] |  | 9.6 | 0.95 | 0.099 | IC50 [9]: 1.19 nM; IC50 [10]: 0.41 nM; Rate of GTP-independent tubulin polymerization [11]: much faster than paclitaxel
COC(=O)O[C@H]1C(=O)[C@@]2(C)C([C@H](OC(=O)c3cccc(OC)c3)[C@]3(O)C[C@H](OC(=O)[C@H](O)[C@H](C=C(F)F)NC(=O)OC(C)(C)C)C(C)=C1C3(C)C)[C@]1(OC(C)=O)CO[C@@H]1C[C@@H]2O (some centres unmarked) [SB-T-12855-1] |  | 6.4 | 0.5 | 0.078 | 
CC(=O)O[C@@]12CO[C@@H]1C[C@H](O)[C@@]1(C)C(=O)[C@H](OC(=O)C3CC3)C3=C(C)[C@@H](OC(=O)[C@H](O)[C@H](C=C(C)C)NC(=O)OC(C)(C)C)C[C@@](O)([C@@H](OC(=O)c4ccccc4)[C@H]21)C3(C)C [SB-T-1214] | 0.28 ± 0.1 |  |  |  | Binding constant with microtubules (microtubules [7]; 26 °C): 12±2 x10^7 M^−1; Binding constant with microtubules (microtubules [7]; 37 °C): 7±1 x10^7 M^−1; Critical concentration of tubulin required for microtubule assembly (tubulin [8]): 0.9 ± 0.2 µM; Primary metabolism (CYP 3A4): hydroxylation primarily at the two allylic methyl groups of the 3′-isobutenyl group
CC(=O)O[C@@]12CO[C@@H]1C[C@H](O)[C@@]1(C)C(=O)[C@H](OC(=O)C3CC3)C3=C(C)[C@@H](OC(=O)[C@H](O)[C@H](C=C(F)F)NC(=O)OC(C)(C)C)C[C@@](O)([C@@H](OC(=O)c4cccc(N=[N+]=[N-])c4)[C@H]21)C3(C)C [SB-T-12852-3] |  | 4.9 | 0.45 | 0.092 | 
CCC(=O)O[C@H]1C(=O)[C@@]2(C)C([C@H](OC(=O)c3ccccc3)[C@]3(O)C[C@H](OC(=O)[C@H](O)[C@H](C=C(F)F)NC(=O)OC(C)(C)C)C(C)=C1C3(C)C)[C@]1(OC(C)=O)CO[C@@H]1C[C@@H]2O (some centres unmarked) [SB-T-12853] |  | 10 | 1.2 | 0.12 | IC50 [9]: 0.65 nM; IC50 [10]: 0.34 nM; Rate of GTP-independent tubulin polymerization [11]: much faster than paclitaxel
CC(=O)O[C@H]1C(=O)[C@@]2(C)C([C@H](OC(=O)c3cccc(N=[N+]=[N-])c3)[C@]3(O)C[C@H](OC(=O)[C@H](O)[C@H](C=C(F)F)NC(=O)OC(C)(C)C)C(C)=C1C3(C)C)[C@]1(OC(C)=O)CO[C@@H]1C[C@@H]2O (some centres unmarked) [SB-T-12851-3] |  | 3.7 | 0.34 | 0.092 | 
CC(=O)O[C@@]12CO[C@@H]1C[C@H](O)[C@@]1(C)C(=O)[C@H](OC(=O)N(C)C)C3=C(C)[C@@H](OC(=O)[C@H](O)[C@H](C=C(C)C)NC(=O)OC(C)(C)C)C[C@@](O)([C@@H](OC(=O)c4ccccc4)C12)C3(C)C (some centres unmarked) [SB-T-1216] | 0.83 ± 0.05 |  |  |  | Primary metabolism (CYP 3A4): hydroxylation primarily at the two allylic methyl groups of the 3′-isobutenyl group
